Data published in patent US20240374529A1, “PHARMACEUTICAL COMPOSITION COMPRISING POLYSACCHARIDE” (HUNG, MIEN-CHIE, priority 2021, published 2024).

Experiments:
Type in all cases: cell-based
4T1 = assay: Cytotoxicity, triple negative breast cancer cell line 4T1; details: Mus musculus
BxPC3 = assay: Cytotoxicity, pancreatic cancer cell line BxPC3; details: Homo sapiens, BXPC-3
CFPAC-1 = assay: Cytotoxicity, pancreatic cancer cell line CFPAC-1; details: Homo sapiens
SKOV3 = assay: Cytotoxicity, ovarian cancer cell line SKOV3; details: Homo sapiens, SK-OV-3
MDA-MB-231 = assay: Cytotoxicity, triple negative breast cancer cell line MDA-MB-231; details: Homo sapiens

SMILES: CC(=O)O[C@@]12CO[C@@H]1C[C@H](O)[C@@]1(C)C(=O)[C@H](O)C3=C(C)[C@@H](OC(=O)[C@H](O)[C@@H](NC(=O)OC(C)(C)C)c4ccccc4)C[C@@](O)([C@@H](OC(=O)c4ccccc4)[C@H]21)C3(C)C [DTX, docetaxel]
- IC50 (4T1): 29.1 nM
- IC50 (BxPC3): 22.9 nM
- IC50 (CFPAC-1): 38.8 nM
- IC50 (SKOV3): 10.1 nM
- IC50 (MDA-MB-231): 18.7 nM
